From patent US11136562B2, “Conditionally active heterodimeric polypeptides and methods of use thereof” (The Regents of the University of California, priority 2016, dated 2021) come the findings set out here.

pEC50: −log10 of the molar value.

Series [1] relates to ER CAR+ Jurkat cells. Kind of series: CD69 upregulation by ER CAR+ Jurkat cells (bCW502 and bCW505) co-cultured with K562 target cells. It is filed as cell-based, human. As for the experimental part: A Jurkat cell line expressing Green Fluorescent Protein upon NFAT activation was used. The cell line was maintained in RPMI-1640 medium supplemented with 10% FBS and glutamine. K562 target cells (CD19+/−) were cultured in DMEM supplemented with 10% FBS. Jurkat cells infected with lentivirus with the CAR constructs were co-cultured with K562 target cells that expressed the target antigen (CD19) or an irrelevant antigen (mesothelin). 4-Hydroxytamoxifen (Sigma-Aldrich #H7904) was dissolved in DMSO and added to samples to a final concentration of 0-10 μM. The Rapalog A/C Heterodimerizer (Clontech Laboratories #635055) was dissolved in ethanol and added to a final concentration of 500 nM. The cells were cultured for 24 hours, stained for CD69 expression, and analyzed on a flow cytomter.
The data are depicted in FIG. 16A and FIG. 16B. FIG. 16A. CD69 upregulation by Jurkat cells expressing ER CAR+ (bCW502 and bCW505) after 24 hours of co-culturing with K562 target cells expressing CD19 or mesothelin, an irrelevant antigen (“meso”), in the presence or absence of a small-molecule dimerizer (4-hydroxytamoxifen or rapalog AP21967). […] Rapamycin CAR and dead rapamycin CAR (with a mutation in ITAM that abolishes signalling) were tested as positive and negative controls, respectively. FIG. 16B. […]

Series [2] deals with primary human CD8+ T cells expressing a CD19 specific ER-beta/CoRNR ON-switch CAR. Kind of series: CD69 upregulation by primary human CD8+ T cells expressing ER-beta/CoRNR ON-switch CAR co-cultured with K562 target cells. It is filed as cell-based. The conditions noted are these: 24 hours co-culture with K562 cells expressing CD19, 4-hydroxytamoxifen 0-10 μM. An excerpt:
A human estrogen receptor beta nuclear receptor-peptide system was expressed in primary human T cells and found to capable of modulating ON-switch CAR activity. A CD19 specific ON-switch CAR was constructed to include human estrogen receptor beta ligand binding domain and co-repressor peptide (CoRNR). A schematic representation of the general construct within the T cell membrane, and the associated CD19 antigen expressed on the surface of the target cell, is provided in FIG. 17.
Specifically, CD69 upregulation by primary human CD8+ T cells expressing a CD19 specific ON-switch CAR constructed to include human estrogen receptor beta ligand binding domain (ER-beta) and co-repressor peptide (CoRNR) was measured after 24 hours of co-culturing with K562 target cells expressing CD19 or mesothelin, an irrelevant antigen (“meso”), in the presence or absence of a small-molecule dimerizer (4-hydroxytamoxifen or rapalog “rapa”).

The test system of series [3] is CD19-expressing K562 target cells. Kind of series: Target cell killing by primary human CD8+ T cells expressing the CD19 specific ER-beta/CoRNR ON-switch CAR. Format: cell-based. The note with it: 22 hours co-culture; percent of CD19-expressing K562 target cells remaining; various drug concentrations. As for the experimental part:
Cell killing by primary human CD8+ T cells expressing the CD19 specific ER-beta/CoRNR ON-switch CAR was also assessed. Specifically, the percent of CD19-expressing K562 target cells remaining after 22 hours of co-culture with primary human CD8+ T cells expressing the CD19 specific ER-beta/CoRNR ON-switch CAR (ER-CAR) in the presence of various concentrations of drug (4-hydroxytamoxifen (4HT) or rapalog) was measured (FIG. 52). Cells expressing a CD19 specific single-chain second generation CAR (“2nd gen CAR”) and cells expressing a CD19 specific rapalog on-switch CAR, with administered rapalog dimerizer, were used as positive controls. Negative controls included cells expressing ER-CAR T cells in absence of 4HT (ethanol vehicle only, “ER-CAR+EtOH”) and cells expressing only part 2 of the ER-CAR on-switch construct, i.e., without part 1, in the presence of 4HT.

The subject of series [4] is primary CD8+ T cells expressing a split ON-switch CAR (human Vitamin D receptor ligand binding domain / SRC2-3 coactivator peptide). Kind of series: T cell activation of primary CD8+ T cells expressing a split ON-switch CAR with human Vitamin D receptor LBD and SRC2-3 coactivator peptide. It is filed as cell-based. The conditions noted are these: in the presence of the dimerizer.

As a reminder, the pEC50 is the negative decadic logarithm of the EC50, by convention in mol/L. For 4-Hydroxytamoxifen, the negative logarithm of the EC50 (pEC50) in series [1] (24 hours co-culture with K562 cells expressing CD19, flow cytometry, read-out: EC50 of CD69 expression induction) is about 7.00. Further, the “CD69 expression in ER CAR+ Jurkat cells” value in series [1] (24 hours co-culture, only in the presence of K562 cells expressing CD19, not the irrelevant antigen mesothelin) is “strongly induced”. Also, the “T cell activation (CD69 upregulation) of primary human CD8+ T cells” value in series [2] is reported as “increasing numbers of CD69 positive primary human CD8+ T cells”; in series [2] (listed as 4-hyroxytamoxifen), “increased T cell activation”. Also, the “target cell killing (cytotoxic activity)” value in series [3] is reported as “inducible target cell killing”.

With `C=C1/C(=C\C=C2/CCC[C@]3(C)[C@@H]([C@H](C)/C=C/[C@@H](O)C4CC4)CC[C@@H]23)C[C@@H](O)C[C@@H]1O` [calcipotriol], in series [4], the T cell activation entry is “increased activation”.
